The record followed here is ChEMBL document CHEMBL5696442, “Discovery of type II inhibitors of TGFβ-activated kinase 1 (TAK1) and mitogen-activated protein kinase kinase kinase kinase 2 (MAP4K2)” (J Med Chem, 2015).

The source made the active and inactive calls. The rule behind the calls is not given here.

For assay [1], the target named is 5'-AMP-activated protein kinase catalytic subunit alpha-1 (Homo sapiens) (UniProt Q13131). Description: Inhibition of AMPKa1 Lys1 labeling site in human A-375 cells at 0.5 uM by KiNativ Profiling analysis relative to control. Format: cell-based.
Sequence of 5'-AMP-activated protein kinase catalytic subunit alpha-1 (Homo sapiens) (Q13131 whole entry, looked up): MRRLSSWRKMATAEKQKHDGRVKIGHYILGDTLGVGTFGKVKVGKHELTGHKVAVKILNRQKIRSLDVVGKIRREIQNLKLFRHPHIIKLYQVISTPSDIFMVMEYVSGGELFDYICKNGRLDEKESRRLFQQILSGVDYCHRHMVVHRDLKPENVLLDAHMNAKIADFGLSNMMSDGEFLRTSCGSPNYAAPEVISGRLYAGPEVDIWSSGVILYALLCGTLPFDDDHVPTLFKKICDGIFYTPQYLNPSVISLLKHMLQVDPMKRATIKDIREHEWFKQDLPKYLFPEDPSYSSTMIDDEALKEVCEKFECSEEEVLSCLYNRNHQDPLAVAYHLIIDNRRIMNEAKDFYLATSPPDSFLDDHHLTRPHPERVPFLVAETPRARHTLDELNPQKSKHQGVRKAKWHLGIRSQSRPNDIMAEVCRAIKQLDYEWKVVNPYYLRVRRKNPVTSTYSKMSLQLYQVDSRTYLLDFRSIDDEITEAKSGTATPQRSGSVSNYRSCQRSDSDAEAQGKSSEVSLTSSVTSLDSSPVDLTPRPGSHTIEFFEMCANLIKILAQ
The target of assay [2] is T1, NUAK family SNF1-like kinase 2 (Homo sapiens) (UniProt Q9H093).
T1 sequence (whole entry): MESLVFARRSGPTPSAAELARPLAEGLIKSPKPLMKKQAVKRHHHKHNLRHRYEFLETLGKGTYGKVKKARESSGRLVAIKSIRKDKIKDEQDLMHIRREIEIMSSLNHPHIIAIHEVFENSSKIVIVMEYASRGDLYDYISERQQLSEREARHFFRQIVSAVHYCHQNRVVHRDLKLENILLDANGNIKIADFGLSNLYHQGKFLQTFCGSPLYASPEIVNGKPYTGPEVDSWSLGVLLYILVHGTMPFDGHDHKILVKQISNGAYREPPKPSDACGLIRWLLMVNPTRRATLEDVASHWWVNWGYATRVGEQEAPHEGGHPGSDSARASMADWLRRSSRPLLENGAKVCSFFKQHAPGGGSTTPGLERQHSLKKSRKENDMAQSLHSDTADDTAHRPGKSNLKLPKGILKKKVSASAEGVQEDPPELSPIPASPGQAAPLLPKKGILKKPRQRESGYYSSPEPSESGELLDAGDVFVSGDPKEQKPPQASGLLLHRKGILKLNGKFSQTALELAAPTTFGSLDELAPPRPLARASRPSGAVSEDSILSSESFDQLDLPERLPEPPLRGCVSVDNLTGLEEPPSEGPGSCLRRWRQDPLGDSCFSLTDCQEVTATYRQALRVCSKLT
Briefly: Inhibition of SNARK (unknown origin) at 1 uM by Ambit Kinomescan binding assay relative to control.

The target in assay [3] is cAMP-dependent protein kinase catalytic subunit beta (Homo sapiens) (UniProt P22694). Description: Inhibition of PKAC beta (unknown origin) at 1 uM by Ambit Kinomescan binding assay relative to control.
The target in assay [4] is Dual specificity protein kinase TTK (Homo sapiens) (UniProt P33981). Briefly: Inhibition of TTK (unknown origin) at 10 uM by Ambit Kinomescan binding assay relative to control; values are per cent of control.
Assay [5] deals with Ribosomal protein S6 kinase alpha-1 (Homo sapiens) (UniProt Q15418). Description: Inhibition of RSK1 Domain 2 K2 labeling site in human Huh-7 cells at 10 uM by KiNativ Profiling analysis relative to control. Format: cell-based.
Sequence of Ribosomal protein S6 kinase alpha-1 (Homo sapiens) (Q15418 whole entry, the tested form may be a part): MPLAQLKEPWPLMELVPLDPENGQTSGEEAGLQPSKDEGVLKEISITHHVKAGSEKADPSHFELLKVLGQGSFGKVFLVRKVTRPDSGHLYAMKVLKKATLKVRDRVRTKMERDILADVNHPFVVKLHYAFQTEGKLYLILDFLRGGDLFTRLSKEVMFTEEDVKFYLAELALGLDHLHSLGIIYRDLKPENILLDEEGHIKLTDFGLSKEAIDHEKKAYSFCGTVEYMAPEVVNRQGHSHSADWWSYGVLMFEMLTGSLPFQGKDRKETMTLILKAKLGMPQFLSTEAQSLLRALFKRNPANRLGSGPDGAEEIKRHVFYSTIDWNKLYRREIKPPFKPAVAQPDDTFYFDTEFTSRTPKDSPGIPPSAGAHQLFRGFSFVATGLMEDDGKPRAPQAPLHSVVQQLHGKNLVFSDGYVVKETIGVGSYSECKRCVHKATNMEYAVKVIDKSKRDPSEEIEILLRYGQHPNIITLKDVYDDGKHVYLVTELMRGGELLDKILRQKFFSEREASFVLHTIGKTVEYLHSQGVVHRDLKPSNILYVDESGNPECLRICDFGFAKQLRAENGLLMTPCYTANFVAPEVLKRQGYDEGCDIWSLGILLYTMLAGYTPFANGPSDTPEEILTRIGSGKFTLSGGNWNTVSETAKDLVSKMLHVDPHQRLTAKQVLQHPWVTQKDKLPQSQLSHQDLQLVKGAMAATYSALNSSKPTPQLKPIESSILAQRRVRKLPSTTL
The subject of assay [6] is Tyrosine-protein kinase ABL1 (Homo sapiens), P00519 [F317L]. Briefly: Inhibition of ABL1 F317L mutant (unknown origin) at 10 uM by Ambit Kinomescan binding assay relative to control.
The target of assay [7] is T2, Serine/threonine-protein kinase Nek1 (Homo sapiens) (UniProt Q96PY6).
T2 sequence (whole entry): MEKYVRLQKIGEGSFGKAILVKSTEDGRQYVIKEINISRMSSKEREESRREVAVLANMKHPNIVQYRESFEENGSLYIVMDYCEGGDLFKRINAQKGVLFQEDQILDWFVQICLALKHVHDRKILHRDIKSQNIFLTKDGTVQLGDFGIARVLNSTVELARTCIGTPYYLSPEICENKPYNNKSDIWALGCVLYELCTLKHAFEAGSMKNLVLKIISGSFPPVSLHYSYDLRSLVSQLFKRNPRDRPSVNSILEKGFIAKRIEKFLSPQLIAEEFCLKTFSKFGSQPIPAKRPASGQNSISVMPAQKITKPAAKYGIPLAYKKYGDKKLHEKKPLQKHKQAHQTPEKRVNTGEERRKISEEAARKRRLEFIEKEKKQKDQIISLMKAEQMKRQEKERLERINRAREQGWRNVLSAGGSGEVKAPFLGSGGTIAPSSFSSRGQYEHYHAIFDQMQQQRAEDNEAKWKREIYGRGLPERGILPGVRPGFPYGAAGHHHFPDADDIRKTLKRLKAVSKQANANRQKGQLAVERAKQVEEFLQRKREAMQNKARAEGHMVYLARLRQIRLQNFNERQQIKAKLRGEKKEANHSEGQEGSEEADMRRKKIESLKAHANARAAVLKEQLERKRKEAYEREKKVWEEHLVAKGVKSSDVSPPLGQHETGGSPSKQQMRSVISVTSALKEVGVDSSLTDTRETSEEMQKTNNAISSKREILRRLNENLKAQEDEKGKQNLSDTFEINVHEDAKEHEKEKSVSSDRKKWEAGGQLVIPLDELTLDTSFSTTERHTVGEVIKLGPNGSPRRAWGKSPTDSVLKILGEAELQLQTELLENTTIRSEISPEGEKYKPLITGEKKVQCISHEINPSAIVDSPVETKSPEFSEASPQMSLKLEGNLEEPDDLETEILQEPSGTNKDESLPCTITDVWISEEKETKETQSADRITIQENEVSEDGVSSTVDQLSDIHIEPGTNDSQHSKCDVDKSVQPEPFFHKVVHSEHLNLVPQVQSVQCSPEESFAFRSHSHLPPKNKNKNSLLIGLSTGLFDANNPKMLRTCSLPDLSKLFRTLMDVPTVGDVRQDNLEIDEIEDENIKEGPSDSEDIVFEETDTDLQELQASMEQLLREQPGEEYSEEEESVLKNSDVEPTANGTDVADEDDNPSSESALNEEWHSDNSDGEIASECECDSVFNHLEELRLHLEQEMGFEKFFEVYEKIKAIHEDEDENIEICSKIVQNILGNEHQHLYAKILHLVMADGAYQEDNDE
Description: Inhibition of NEK1 Lys2 labeling site in human A-375 cells at 5 uM by KiNativ Profiling analysis relative to control. The assay is classed as cell-based.

For assay [8], the target named is Serine/threonine-protein kinase 32C (Homo sapiens) (UniProt Q86UX6). Briefly: Inhibition of YANK3 (unknown origin) at 10 uM by Ambit Kinomescan binding assay.
Sequence of Serine/threonine-protein kinase 32C (Homo sapiens) (Q86UX6 whole entry): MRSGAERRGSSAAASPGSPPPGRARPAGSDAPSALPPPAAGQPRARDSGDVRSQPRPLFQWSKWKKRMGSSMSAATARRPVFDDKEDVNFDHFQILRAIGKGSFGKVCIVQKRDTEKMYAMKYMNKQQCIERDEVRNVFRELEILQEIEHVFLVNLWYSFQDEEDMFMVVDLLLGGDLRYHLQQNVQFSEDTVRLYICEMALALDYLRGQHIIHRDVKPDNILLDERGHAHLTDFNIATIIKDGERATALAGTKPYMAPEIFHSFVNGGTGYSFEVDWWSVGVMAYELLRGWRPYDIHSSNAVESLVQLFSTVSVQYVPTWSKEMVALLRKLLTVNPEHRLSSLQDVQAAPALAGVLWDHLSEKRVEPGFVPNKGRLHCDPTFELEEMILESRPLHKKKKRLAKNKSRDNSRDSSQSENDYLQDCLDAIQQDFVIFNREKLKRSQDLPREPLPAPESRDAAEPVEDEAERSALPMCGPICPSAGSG
Assay [9] has as its target Serine/threonine-protein kinase WNK4 (Homo sapiens) (UniProt Q96J92). Description: Inhibition of Wnk4 ACT labeling site in human Huh-7 cells at 1 uM by KiNativ Profiling analysis relative to control. The assay is classed as cell-based.
Assay [10] has as its target Phosphatidylinositol 4-kinase type 2-beta (Homo sapiens) (UniProt Q8TCG2). Description: Inhibition of PI4K2B ATP labeling site in human Huh-7 cell lysate at 1 uM by KiNativ Profiling analysis relative to control. Format: subcellular.

Sequence of Phosphatidylinositol 4-kinase type 2-beta (Homo sapiens) (Q8TCG2 whole entry): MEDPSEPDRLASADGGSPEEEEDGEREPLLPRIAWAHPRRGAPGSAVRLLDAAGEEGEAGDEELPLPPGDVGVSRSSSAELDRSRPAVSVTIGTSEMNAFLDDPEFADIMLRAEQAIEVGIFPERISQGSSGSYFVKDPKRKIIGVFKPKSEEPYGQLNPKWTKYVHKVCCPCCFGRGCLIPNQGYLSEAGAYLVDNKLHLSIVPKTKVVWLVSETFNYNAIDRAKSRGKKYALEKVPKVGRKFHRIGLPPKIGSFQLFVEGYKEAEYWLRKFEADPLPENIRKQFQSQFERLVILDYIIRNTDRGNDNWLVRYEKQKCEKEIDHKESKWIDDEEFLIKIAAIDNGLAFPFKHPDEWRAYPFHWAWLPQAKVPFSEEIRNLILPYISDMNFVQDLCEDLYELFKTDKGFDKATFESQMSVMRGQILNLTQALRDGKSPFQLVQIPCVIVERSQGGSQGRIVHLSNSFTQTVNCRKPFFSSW
Sequence of Serine/threonine-protein kinase WNK4 (Homo sapiens) (Q96J92 whole entry): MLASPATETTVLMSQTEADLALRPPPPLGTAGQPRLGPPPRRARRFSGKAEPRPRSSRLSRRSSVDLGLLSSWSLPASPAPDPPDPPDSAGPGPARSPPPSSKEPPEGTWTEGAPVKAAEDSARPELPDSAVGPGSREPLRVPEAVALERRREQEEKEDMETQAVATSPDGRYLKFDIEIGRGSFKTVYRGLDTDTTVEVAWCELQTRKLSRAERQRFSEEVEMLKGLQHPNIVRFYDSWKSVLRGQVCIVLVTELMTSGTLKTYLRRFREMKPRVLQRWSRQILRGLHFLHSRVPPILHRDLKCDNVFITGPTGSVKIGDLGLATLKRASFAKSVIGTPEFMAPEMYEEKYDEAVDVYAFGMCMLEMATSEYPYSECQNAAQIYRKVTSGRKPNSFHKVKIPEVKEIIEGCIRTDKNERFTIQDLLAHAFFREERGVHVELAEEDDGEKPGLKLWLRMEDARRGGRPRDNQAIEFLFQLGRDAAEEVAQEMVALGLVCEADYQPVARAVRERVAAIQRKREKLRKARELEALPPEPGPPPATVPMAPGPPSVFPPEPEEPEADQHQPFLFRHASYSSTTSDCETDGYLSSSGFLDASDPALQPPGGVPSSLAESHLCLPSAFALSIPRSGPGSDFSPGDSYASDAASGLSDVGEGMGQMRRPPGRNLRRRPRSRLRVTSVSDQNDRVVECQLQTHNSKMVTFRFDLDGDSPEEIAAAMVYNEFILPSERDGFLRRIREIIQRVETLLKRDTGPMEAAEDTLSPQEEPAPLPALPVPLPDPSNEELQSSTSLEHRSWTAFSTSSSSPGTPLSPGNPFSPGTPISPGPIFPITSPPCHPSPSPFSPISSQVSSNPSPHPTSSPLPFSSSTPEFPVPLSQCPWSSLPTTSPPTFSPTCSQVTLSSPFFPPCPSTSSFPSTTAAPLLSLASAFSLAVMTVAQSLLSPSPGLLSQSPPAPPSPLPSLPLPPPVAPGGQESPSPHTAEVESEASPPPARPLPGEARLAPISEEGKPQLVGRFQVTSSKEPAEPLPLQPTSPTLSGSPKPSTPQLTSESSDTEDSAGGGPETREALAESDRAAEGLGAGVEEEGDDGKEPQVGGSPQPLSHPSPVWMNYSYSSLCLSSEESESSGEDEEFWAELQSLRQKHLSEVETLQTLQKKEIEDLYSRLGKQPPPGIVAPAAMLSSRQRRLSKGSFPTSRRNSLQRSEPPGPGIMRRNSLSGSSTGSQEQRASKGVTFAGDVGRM
Sequence of Tyrosine-protein kinase ABL1 (Homo sapiens), P00519 [F317L] (P00519 whole entry F317L): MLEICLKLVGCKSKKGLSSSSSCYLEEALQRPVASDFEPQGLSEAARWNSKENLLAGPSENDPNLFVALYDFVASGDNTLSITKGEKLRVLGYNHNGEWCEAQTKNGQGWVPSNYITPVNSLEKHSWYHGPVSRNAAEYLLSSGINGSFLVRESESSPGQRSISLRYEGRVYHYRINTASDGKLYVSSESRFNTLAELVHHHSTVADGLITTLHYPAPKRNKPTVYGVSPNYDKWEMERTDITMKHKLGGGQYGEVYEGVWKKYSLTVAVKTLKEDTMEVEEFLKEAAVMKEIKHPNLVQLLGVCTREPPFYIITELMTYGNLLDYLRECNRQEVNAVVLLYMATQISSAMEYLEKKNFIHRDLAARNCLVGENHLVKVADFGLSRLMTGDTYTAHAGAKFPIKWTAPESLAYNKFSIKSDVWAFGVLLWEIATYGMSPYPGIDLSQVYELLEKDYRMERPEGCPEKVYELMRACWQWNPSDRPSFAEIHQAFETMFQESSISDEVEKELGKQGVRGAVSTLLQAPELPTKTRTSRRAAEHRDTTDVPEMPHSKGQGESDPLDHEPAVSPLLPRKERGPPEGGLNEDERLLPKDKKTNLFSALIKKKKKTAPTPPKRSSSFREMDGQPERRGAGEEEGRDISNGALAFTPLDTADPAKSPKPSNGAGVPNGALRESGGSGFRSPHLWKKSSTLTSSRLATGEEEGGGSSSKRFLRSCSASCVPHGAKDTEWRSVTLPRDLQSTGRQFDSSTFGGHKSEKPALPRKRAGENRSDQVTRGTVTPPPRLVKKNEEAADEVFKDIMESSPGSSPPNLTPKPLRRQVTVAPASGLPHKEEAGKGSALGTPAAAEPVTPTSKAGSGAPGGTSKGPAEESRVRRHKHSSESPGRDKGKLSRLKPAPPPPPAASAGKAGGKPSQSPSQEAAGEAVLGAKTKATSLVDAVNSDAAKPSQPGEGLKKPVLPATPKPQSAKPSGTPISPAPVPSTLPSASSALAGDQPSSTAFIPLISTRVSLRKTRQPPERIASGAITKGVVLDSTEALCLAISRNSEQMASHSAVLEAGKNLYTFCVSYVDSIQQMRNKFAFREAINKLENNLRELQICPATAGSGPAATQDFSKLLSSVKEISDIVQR

With `CCN1CCN(Cc2ccc(NC(=O)c3ccc(C)c(/C=C/c4cnc5[nH]ccc5c4OC)c3)cc2C(F)(F)F)CC1`, the results for the inhibition in assay [1], in assay [2] and in assay [3] were 20.3%, 76% and 76%, respectively.
`CCN1CCN(Cc2ccc(NC(=O)c3ccc(C)c(Oc4ccnc5[nH]ccc45)c3)cc2C(F)(F)F)CC1` came in with a residual activity in assay [4] of 24%. Also, the inhibition is 8% in assay [5], 0.1% in assay [6] and -7.1% in assay [7]. Also, the inhibition result in assay [8] was “inactive”.
As to `CNc1cc(Oc2cc(C(=O)Nc3cc(N4CCN(C)CC4)cc(C(F)(F)F)c3)ccc2C)ncn1`, the values for the inhibition in assay [9] and in [10] were 21.6% and 25%, respectively.

Broadly, the inhibition is the change of the read-out against control, counted positive when it falls. What is called residual activity is the activity still measured, relative to the control. Higher therefore signals much activity left.
